According to PubChem BioAssay AID1918931 (Molecular Pharmacology Branch, DTP, NCI, 2023):

Tested on: 138582-337-R-J1-PDC complex spheroid viability
Assay: Anticancer human tumor 138582-337-R-J1-PDC patient-derived Merkel cell tumor cell line growth inhibition
Settings: for IC50: curve of first compound; for viability, T/C: stronger effect = lower value
Summary of the method: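 Multicellular complex spheroids of tumor cells with human endothelial cells (HUVEC) and mesenchymal stem cells; the LSD1 inhibitor iadademstat was combined with standard-of-care or investigational agents. Top concentration at or near clinical Cmax, half-log dilutions; final DMSO ≤0.25%.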
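Note: spheroids exposed to agents for 7 days.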
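Throughout, for viability, T/C: 100% = DMSO vehicle control viability.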

Q: With Nc1ccccc1NC(=O)c1ccc(CNC(=O)OCc2cccnc2)cc1 + NC1CCC(NC2CC2c2ccccc2)CC1 as the molecule, how does the IC50 (second compound 0.1 µM) read?
A: 1100 nM

Q: What about the IC50 (second compound 0.316 µM) of the same molecule?
A: 1100 nM

Q: And the IC50 (second compound 1 µM)?
A: 1020 nM

Q: What about the IC50 (second compound 3.16 µM) of the same molecule?
A: 1010 nM

Q: And the IC50 (second compound 10 µM)?
A: 138 nM

Q: And the viability, T/C (second compound 0.1 µM, first compound 0.00949 µM)?
A: 103%

Q: What about the viability, T/C (second compound 0.1 µM, first compound 0.03 µM) of the same molecule?
A: 81.7%

Q: And the viability, T/C (second compound 0.1 µM, first compound 0.0949 µM)?
A: 83.9%

Q: And the viability, T/C (second compound 0.1 µM, first compound 0.3 µM)?
A: 101%

Q: And the viability, T/C (second compound 0.1 µM, first compound 0.949 µM)?
A: 57.1%

Q: What about the viability, T/C (second compound 0.1 µM, first compound 3 µM) of the same molecule?
A: 1.81%

Q: And the viability, T/C (second compound 0.316 µM, first compound 0.00949 µM)?
A: 88.8%

Q: What about the viability, T/C (second compound 0.316 µM, first compound 0.03 µM) of the same molecule?
A: 76.8%

Q: What about the viability, T/C (second compound 0.316 µM, first compound 0.0949 µM) of the same molecule?
A: 79.5%

Q: And the viability, T/C (second compound 0.316 µM, first compound 0.3 µM)?
A: 86.1%

Q: What about the viability, T/C (second compound 0.316 µM, first compound 0.949 µM) of the same molecule?
A: 57%

Q: And the viability, T/C (second compound 0.316 µM, first compound 3 µM)?
A: 1.94%

Q: And the viability, T/C (second compound 1 µM, first compound 0.00949 µM)?
A: 96.1%

Q: And the viability, T/C (second compound 1 µM, first compound 0.03 µM)?
A: 80.2%

Q: And the viability, T/C (second compound 1 µM, first compound 0.0949 µM)?
A: 77.3%

Q: What about the viability, T/C (second compound 1 µM, first compound 0.3 µM) of the same molecule?
A: 92.5%

Q: What about the viability, T/C (second compound 1 µM, first compound 0.949 µM) of the same molecule?
A: 53.5%

Q: What about the viability, T/C (second compound 1 µM, first compound 3 µM) of the same molecule?
A: 0.81%

Q: What about the viability, T/C (second compound 3.16 µM, first compound 0.00949 µM) of the same molecule?
A: 90.5%

Q: And the viability, T/C (second compound 3.16 µM, first compound 0.03 µM)?
A: 82.3%

Q: And the viability, T/C (second compound 3.16 µM, first compound 0.0949 µM)?
A: 74.5%

Q: What about the viability, T/C (second compound 3.16 µM, first compound 0.3 µM) of the same molecule?
A: 76.4%

Q: What about the viability, T/C (second compound 3.16 µM, first compound 0.949 µM) of the same molecule?
A: 53.5%

Q: What about the viability, T/C (second compound 3.16 µM, first compound 3 µM) of the same molecule?
A: 0.82%

Q: What about the viability, T/C (second compound 10 µM, first compound 0.00949 µM) of the same molecule?
A: 74.2%

Q: What about the viability, T/C (second compound 10 µM, first compound 0.03 µM) of the same molecule?
A: 57.8%

Q: And the viability, T/C (second compound 10 µM, first compound 0.0949 µM)?
A: 62.2%

Q: And the viability, T/C (second compound 10 µM, first compound 0.3 µM)?
A: 35.4%

Q: What about the viability, T/C (second compound 10 µM, first compound 0.949 µM) of the same molecule?
A: 17.7%

Q: And the viability, T/C (second compound 10 µM, first compound 3 µM)?
A: 0.52%

Q: O=C(c1cc(Cc2n[nH]c(=O)c3ccccc23)ccc1F)N1CCN(C(=O)C2CC2)CC1 + NC1CCC(NC2CC2c2ccccc2)CC1 was tested. Which IC50 (second compound 0.1 µM) did it give?
A: > 10000 nM

Q: What about the IC50 (second compound 0.316 µM) of the same molecule?
A: > 10000 nM

Q: And the IC50 (second compound 1 µM)?
A: > 10000 nM

Q: What about the IC50 (second compound 3.16 µM) of the same molecule?
A: > 10000 nM

Q: What about the IC50 (second compound 10 µM) of the same molecule?
A: > 10000 nM

Q: And the viability, T/C (second compound 0.1 µM, first compound 0.0316 µM)?
A: 102%

Q: And the viability, T/C (second compound 0.1 µM, first compound 0.1 µM)?
A: 91.2%

Q: And the viability, T/C (second compound 0.1 µM, first compound 0.316 µM)?
A: 86.7%

Q: And the viability, T/C (second compound 0.1 µM, first compound 1 µM)?
A: 92.7%

Q: And the viability, T/C (second compound 0.1 µM, first compound 3.16 µM)?
A: 84.3%

Q: What about the viability, T/C (second compound 0.1 µM, first compound 10 µM) of the same molecule?
A: 95.7%

Q: And the viability, T/C (second compound 0.316 µM, first compound 0.0316 µM)?
A: 99.6%

Q: And the viability, T/C (second compound 0.316 µM, first compound 0.1 µM)?
A: 99.9%

Q: What about the viability, T/C (second compound 0.316 µM, first compound 0.316 µM) of the same molecule?
A: 88.1%

Q: What about the viability, T/C (second compound 0.316 µM, first compound 1 µM) of the same molecule?
A: 85.8%

Q: What about the viability, T/C (second compound 0.316 µM, first compound 3.16 µM) of the same molecule?
A: 80.1%

Q: What about the viability, T/C (second compound 0.316 µM, first compound 10 µM) of the same molecule?
A: 103%

Q: What about the viability, T/C (second compound 1 µM, first compound 0.0316 µM) of the same molecule?
A: 102%

Q: What about the viability, T/C (second compound 1 µM, first compound 0.1 µM) of the same molecule?
A: 98.1%

Q: And the viability, T/C (second compound 1 µM, first compound 0.316 µM)?
A: 92.5%

Q: And the viability, T/C (second compound 1 µM, first compound 1 µM)?
A: 81.1%

Q: What about the viability, T/C (second compound 1 µM, first compound 3.16 µM) of the same molecule?
A: 79%

Q: And the viability, T/C (second compound 1 µM, first compound 10 µM)?
A: 104%

Q: What about the viability, T/C (second compound 3.16 µM, first compound 0.0316 µM) of the same molecule?
A: 83.8%

Q: What about the viability, T/C (second compound 3.16 µM, first compound 0.1 µM) of the same molecule?
A: 98.3%

Q: And the viability, T/C (second compound 3.16 µM, first compound 0.316 µM)?
A: 113%

Q: What about the viability, T/C (second compound 3.16 µM, first compound 1 µM) of the same molecule?
A: 76.5%

Q: What about the viability, T/C (second compound 3.16 µM, first compound 3.16 µM) of the same molecule?
A: 86.7%

Q: And the viability, T/C (second compound 3.16 µM, first compound 10 µM)?
A: 75.7%

Q: And the viability, T/C (second compound 10 µM, first compound 0.0316 µM)?
A: 78.5%

Q: What about the viability, T/C (second compound 10 µM, first compound 0.1 µM) of the same molecule?
A: 104%

Q: And the viability, T/C (second compound 10 µM, first compound 0.316 µM)?
A: 77.7%

Q: What about the viability, T/C (second compound 10 µM, first compound 1 µM) of the same molecule?
A: 74.1%

Q: What about the viability, T/C (second compound 10 µM, first compound 3.16 µM) of the same molecule?
A: 79.6%

Q: And the viability, T/C (second compound 10 µM, first compound 10 µM)?
A: 63.7%
